Legend:
[1] = target: T1, human recombinant adrenergic α2A receptor (Homo sapiens, UniProt P08913); assay: Radioligand binding, adrenergic α2A ([3H]MK-912); settings: read-out: Percentage inhibition of ligand binding, Adrenergic α2A (0.1 μM), compound at 0.1 μM; [3H]MK-912; repeat datapoints each shown
T1 construct: expressed in transfected cells; host or cells: insect Sf9 cells
T1 sequence (P08913 1-465): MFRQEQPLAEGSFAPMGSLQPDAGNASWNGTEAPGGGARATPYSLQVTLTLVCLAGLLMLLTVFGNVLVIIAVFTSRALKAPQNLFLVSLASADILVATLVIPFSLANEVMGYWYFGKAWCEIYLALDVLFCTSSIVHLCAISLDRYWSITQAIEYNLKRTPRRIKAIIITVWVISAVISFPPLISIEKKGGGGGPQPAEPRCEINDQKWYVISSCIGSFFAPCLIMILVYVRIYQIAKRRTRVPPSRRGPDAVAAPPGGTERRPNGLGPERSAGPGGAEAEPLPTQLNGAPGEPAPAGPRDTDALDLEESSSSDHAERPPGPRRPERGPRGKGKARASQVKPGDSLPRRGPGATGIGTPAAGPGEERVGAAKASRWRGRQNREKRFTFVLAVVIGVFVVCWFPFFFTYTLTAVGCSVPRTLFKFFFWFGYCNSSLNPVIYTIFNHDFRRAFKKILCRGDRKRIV
Summary of the method: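 Displacement of 1 nM [3H]MK-912 from receptor produced in insect Sf9 cells was measured after 60 min at 25 °C. Readout: percent inhibition of specific binding.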

[2] = target: T2, rat adrenergic α1B receptor (Rattus norvegicus, UniProt P15823); assay: Radioligand binding, adrenergic α1B ([3H]Prazosin); settings: [3H]Prazosin, repeat datapoints each shown; for inhibition at 0.1 µM: read-out: Percentage inhibition of ligand binding, Adrenergic α1B (0.1 μM), compound at 0.1 μM
T2 construct: rat adrenergic α1B receptor obtained from Wistar Rat liver; from tissue; host or cells: Wistar rat liver
T2 sequence (P15823 1-515): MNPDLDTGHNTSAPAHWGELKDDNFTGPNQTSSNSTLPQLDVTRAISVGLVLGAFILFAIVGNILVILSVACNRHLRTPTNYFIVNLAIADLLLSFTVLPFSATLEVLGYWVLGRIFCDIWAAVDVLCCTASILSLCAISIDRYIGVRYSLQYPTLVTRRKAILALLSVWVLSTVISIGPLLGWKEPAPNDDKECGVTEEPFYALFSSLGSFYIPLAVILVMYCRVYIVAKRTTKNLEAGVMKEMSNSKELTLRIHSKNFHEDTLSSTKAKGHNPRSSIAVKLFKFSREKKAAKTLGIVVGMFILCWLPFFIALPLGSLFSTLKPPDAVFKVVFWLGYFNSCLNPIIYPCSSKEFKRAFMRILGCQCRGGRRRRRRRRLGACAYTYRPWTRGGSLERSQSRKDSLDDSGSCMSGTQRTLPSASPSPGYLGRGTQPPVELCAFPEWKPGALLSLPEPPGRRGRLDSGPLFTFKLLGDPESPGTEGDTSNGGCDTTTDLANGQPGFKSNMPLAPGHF
Summary of the method: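 Specific binding, taken as total minus that remaining with 10 μM phentolamine, is measured after filtration and counting. Rat liver receptor preparation and 0.25 nM [3H]prazosin are incubated with compound in 50 mM Tris-HCl (pH 7.4, 0.5 mM EDTA) at 25° C for 60 min. Activity is reported as percent inhibition.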

[3] = target: T3, human recombinant adrenergic α2B receptor (Homo sapiens, UniProt P18089); assay: Radioligand binding, adrenergic α2B ([3H]Rauwolscine); settings: for inhibition at 0.03 µM: read-out: Percentage inhibition of ligand binding, Adrenergic α2B (0.03 μM), compound at 0.03 μM
T3 construct: expressed in transfected cells; host or cells: CHO-K1
T3 sequence (P18089 1-450): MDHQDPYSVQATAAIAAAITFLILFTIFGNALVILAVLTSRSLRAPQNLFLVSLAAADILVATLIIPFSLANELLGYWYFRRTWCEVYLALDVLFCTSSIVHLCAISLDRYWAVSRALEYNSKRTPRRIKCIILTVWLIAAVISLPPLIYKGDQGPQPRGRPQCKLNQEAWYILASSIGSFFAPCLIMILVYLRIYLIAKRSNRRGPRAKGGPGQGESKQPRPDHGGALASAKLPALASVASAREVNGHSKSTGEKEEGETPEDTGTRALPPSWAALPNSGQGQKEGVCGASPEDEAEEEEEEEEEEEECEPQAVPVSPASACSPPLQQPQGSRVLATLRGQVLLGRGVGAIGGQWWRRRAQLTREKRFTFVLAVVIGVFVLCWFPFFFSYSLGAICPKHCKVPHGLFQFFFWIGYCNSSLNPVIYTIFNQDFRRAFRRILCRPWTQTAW
Summary of the method: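 Receptor expressed in CHO-K1 cells, assayed in 50 mM Tris-HCl pH 7.4 with 12.5 mM MgCl2, 1 mM EDTA and 0.2% BSA. Compounds were incubated with 2.5 nM [3H]Rauwolscine for 60 min at 25° C; 10 μM Prazosin defined non-specific binding. Filter counting gave percent inhibition of specific binding.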

[4] = [3H]Rauwolscine, repeat datapoints each shown

Row | Structure (SMILES) | inhibition at 0.1 µM [1] [%] | inhibition at 0.1 µM [2] [%] | inhibition at 0.03 µM [3, 4] [%] | Percentage inhibition of ligand binding, Adrenergic α1B (0.1 μM) ([2]; compound at 0.1 μM, 0.1 µM) [%] | inhibition at 0.03 µM ([2]; read-out: Percentage inhibition of ligand binding, Adrenergic α1B (0.03 μM), compound at 0.03 μM) [%] | Percentage inhibition of ligand binding, Adrenergic α2B (0.03 μM) ([3]; compound at 0.03 μM, [3H]Rauwolscine, repeat datapoints each shown, 0.03 µM) [%] | Ki ([3]; read-out: Ki α2B) [nM] | inhibition at 0.1 µM ([3]; read-out: Percentage inhibition of ligand binding, Adrenergic α2B (0.1 μM), compound at 0.1 μM, [3H]Rauwolscine, repeat datapoints each shown) [%]
1 | Cc1ccc2c(c1)c1c(n2CC(CCO)c2ccncc2)CCN(C)C1 (centres unmarked) [II-224, 4-(2,8-dimethyl-1,2,3,4-tetrahydro-pyrido[4,3-b]indol-5-yl)-3-pyridin-4-yl-butan-1-ol] | 22 | 13 | 68 | – | – | – | – | –
2 | Cc1ccc2c(c1)c1c(n2CC(CO)c2ccncc2)CCN(C)C1 (centres unmarked) [II-225] | -1 | 9 | 8 | – | – | – | – | –
3 | Cc1ccc2c(c1)c1c(n2CC(CC(C)(C)O)c2ccncc2)CCN(C)C1 (centres unmarked) [II-226, 5-(2,8-dimethyl-1,2,3,4-tetrahydro-pyrido[4,3-b]indol-5-yl)-2-methyl-4-pyridin-4-yl-pentan-2-ol] | 4 | 15 | 40 | – | – | – | – | –
4 | Cc1ccc2c(c1)c1c(n2CC(CC(=O)O)c2ccncc2)CCN(C)C1 (centres unmarked) [II-228] | 3 | -2 | 10 | – | – | – | – | –
5 | Cc1ccc2c(c1)c1c(n2CC(CC(N)=O)c2ccncc2)CCN(C)C1 (centres unmarked) [II-229, 4-(2,8-dimethyl-1,2,3,4-tetrahydro-pyrido[4,3-b]indol-5-yl)-3-pyridin-4-yl-butyramide] | 6 | 3 | 12 | – | – | – | – | –
6 | Cc1ccc2c(c1)c1c(n2CC(CC(=O)N(C)C)c2ccncc2)CCN(C)C1 (centres unmarked) [II-230, 4-(2,8-dimethyl-1,2,3,4-tetrahydro-pyrido[4,3-b]indol-5-yl)-N,N-dimethyl-3-pyridin-4-yl-butyramide] | 1 | -2 | 22 | – | – | – | – | –
7 | Cc1ccc2c(c1)c1c(n2CC(CCN)c2ccncc2)CCN(C)C1 (centres unmarked) [II-231, 4-(2,8-dimethyl-1,2,3,4-tetrahydro-pyrido[4,3-b]indol-5-yl)-3-pyridin-4-yl-butylamine] | 9 | 11 | -2 | – | – | – | – | –
8 | Cc1ccc2c(c1)c1c(n2CC(CCN(C)C)c2ccncc2)CCN(C)C1 (centres unmarked) [II-232, [4-(2,8-dimethyl-1,2,3,4-tetrahydro-pyrido[4,3-b]indol-5-yl)-3-pyridin-4-yl-butyl]-dimethyl-amine] | 3 | 3 | 28 | – | – | – | – | –
9 | Cc1cnc2c(c1)c1c(n2CCc2ccncc2)CCN(C)C1 [II-240] | 7 | 57 | 53 | – | – | – | – | –
10 | CN1CCc2c(c3ncccc3n2CC(O)c2ccncc2)C1 (centres unmarked) [II-241] | -1 | 5 | -1 | – | – | – | – | –
11 | CN1CCc2c(c3ccncc3n2CC(O)c2ccncc2)C1 (centres unmarked) [II-242] | 2 | 4 | 3 | – | – | – | – | –
12 | Cc1cnc2c(c1)c1c(n2CCc2ccc(C(N)=O)nc2)CCN2CCCC12 (centres unmarked) [II-243, 5-[2-(9-methyl-1,2,3,4,5,10c-hexahydro-3a,6,7-triaza-cyclopenta[c]fluoren-6-yl)-ethyl]-pyridine-2-carboxylic acid amide] | 19 | 91 | 58 | 93 | 79 | 61 | 9.44 | 82
13 | Cc1cnc2c(c1)c1c(n2CCc2cnccn2)CCN2CCCC12 (centres unmarked) [II-245] | 7 | 27 | 44 | – | – | – | – | –
14 | Cc1ccc(CCn2c3c(c4c(Cl)ccc(Cl)c42)CCN(C)CC3)cn1 [II-246, 7,10-dichloro-1,2,3,4,5,6-hexahydro-3-methyl-6-(2-(6-methylpyridin-3-yl)ethyl)azepino [4,5-b]indole] | 47 | -2 | 5 | – | – | – | – | –
15 | Cc1ccc(CCn2c3c(c4c(Br)ccc(Cl)c42)CN(C)CC3)cn1 [II-247, 9-bromo-6-chloro-2,3,4,5-tetrahydro-2-methyl-5-(2-(6-methylpyridin-3-yl)ethyl)-1H-pyrido[4,3-b]indole] | 83 | 3 | 19 | – | – | – | – | –
16 | Cc1ccc(CCn2c3c(c4c(Cl)ccc(F)c42)CN(C)CC3)cn1 [II-248, 9-chloro-6-fluoro-2,3,4,5-tetrahydro-2-methyl-5-(2-(6-methylpyridin-3-yl)ethyl)-1H-pyrido[4,3-b]indole] | 88 | 4 | 5 | – | – | – | – | –
17 | Cc1ccc(CCn2c3c(c4c(Cl)ccc(Cl)c42)CCN(C)C3)cn1 [II-249, 5,8-dichloro-2,3,4,9-tetrahydro-2-methyl-9-(2-(6-methylpyridin-3-yl)ethyl)-1H-pyrido[3,4-b]indole] | 74 | 6 | 4 | – | – | – | – | –
18 | Cc1ccc(CCn2c3c(c4c(F)ccc(F)c42)CN(C)CC3)cn1 [II-250] | 57 | -5 | 6 | – | – | – | – | –
19 | Cc1ccc(CCn2c3c(c4c(Br)ccc(Br)c42)CN(C)CC3)cn1 [II-251] | 81 | -7 | -4 | – | – | – | – | –
20 | Cc1ccc(CCn2c3c(c4c(Cl)ccc(Br)c42)CN(C)CC3)cn1 [II-252] | 91 | -1 | 1 | – | – | – | – | –
21 | Cc1ccc(CCn2c3c(c4c(F)ccc(Cl)c42)CN(C)CC3)cn1 [II-253] | 54 | 9 | 16 | – | – | – | – | –
22 | Cc1ccc2c(c1)c1c(n2CC(N=[N+]=[N-])c2cnccn2)CCN2CCCC12 (centres unmarked) [II-261, 6-(2-azido-2-pyrazin-2-yl-ethyl)-9-methyl-2,3,4,5,6,10c-hexahydro-1H-3a,6-diaza-cyclopenta[c]fluorene] | 70 | 71 | 103 | – | – | – | – | –
23 | Cc1ccc2c(c1)c1c(n2CC(C(=O)O)c2ccncc2)CCN(C)C1 (centres unmarked) [II-262, 3-(2,8-dimethyl-3,4-dihydro-1H-pyrido[4,3-b]indol-5(2H)-yl)-2-(pyridin-4-yl)propanoic acid] | 10 | 3 | 11 | – | – | – | – | –
24 | Cc1ccc2c(c1)c1c(n2CC(C(N)=O)c2ccncc2)CCN(C)C1 (centres unmarked) [II-263] | 10 | 2 | 10 | – | – | – | – | –
25 | Cc1cnc2c(c1)c1c(n2CC(N=[N+]=[N-])c2ccncc2)CCN(C)C1 (centres unmarked) [V-2, 9-(2-azido-2-(pyridin-4-yl)ethyl)-3,6-dimethyl-6,7,8,9-tetrahydro-5H-pyrrolo[2,3-b:4,5-c′]dipyridine] | 2 | 49 | 61 | – | – | – | – | –
